Reference: the supplement of paper PMC13380429
± gives the standard deviation of the averaged measurements.

Experiments:
Conditions in all cases: 72 h
[1] = system: Caco-2; assay: cell viability relative to DMSO; higher = less toxic
[2] = system: Calu-3; assay: as above
[3] = system: HepG2; assay: as above
[4] = system: U2OS; assay: as above
[5] = system: Vero E6; assay: as above
[6] = system: Caco-2; assay: relative viability EC50 (midpoint between 100% and the lowest measured viability); higher = less toxic
[7] = system: Calu-3; assay: as above
[8] = system: HepG2; assay: as above
[9] = system: U2OS; assay: as above
[10] = system: Vero E6; assay: as above
[11] = system: Caco-2; assay: drug sensitivity score (DSS) for viability; higher = more toxic; extreme values may be limits of the assay
[12] = system: Calu-3; assay: as above
[13] = system: HepG2; assay: as above
[14] = system: U2OS; assay: as above
[15] = system: Vero E6; assay: as above

Compound | cell viability ([1]; 1 nM) [%] | cell viability ([1]; 10 nM) [%] | cell viability ([1]; 100 nM) [%] | cell viability ([1]; 1000 nM) [%] | cell viability ([1]; 10000 nM) [%] | cell viability ([2]; 1 nM) [%] | cell viability ([2]; 10 nM) [%] | cell viability ([2]; 100 nM) [%] | cell viability ([2]; 1000 nM) [%] | cell viability ([2]; 10000 nM) [%] | cell viability ([3]; 1 nM) [%] | cell viability ([3]; 10 nM) [%] | cell viability ([3]; 100 nM) [%] | cell viability ([3]; 1000 nM) [%] | cell viability ([3]; 10000 nM) [%] | cell viability ([4]; 1 nM) [%] | cell viability ([4]; 10 nM) [%] | cell viability ([4]; 100 nM) [%] | cell viability ([4]; 1000 nM) [%] | cell viability ([4]; 10000 nM) [%] | cell viability ([5]; 1 nM) [%] | cell viability ([5]; 10 nM) [%] | cell viability ([5]; 100 nM) [%] | cell viability ([5]; 1000 nM) [%] | cell viability ([5]; 10000 nM) [%] | relative viability EC50 [6] [µM] | relative viability EC50 [7] [µM] | relative viability EC50 [8] [µM] | relative viability EC50 [9] [µM] | relative viability EC50 [10] [µM] | drug sensitivity score [11] | drug sensitivity score [12] | drug sensitivity score [13] | drug sensitivity score [14] | drug sensitivity score [15]
COc1ccc(-c2ccc3c(N4CCOC[C@@H]4C)nc(N4CCOC[C@@H]4C)nc3n2)cc1CO [AZD8055] | 94.3 | 88.2 | 54 | 34.6 | 28.2 | 101 | 83.7 | 37.6 | 26.4 | 27.2 | 99.4 | 90.8 | 54.7 | 27.1 | 18.9 | 99 | 102 | 57.5 | 22.8 | 16.1 | 96.9 | 89.7 | 69.9 | 40.1 | 30.3 | 0.0545 | 0.0265 | 0.0808 | 0.101 | 0.123 | 18.8 | 23 | 19.7 | 20 | 15
C[C@@H](Nc1cc(F)cc(F)c1)c1cc(C(=O)N(C)C)cc2c(=O)cc(N3CCOCC3)oc12 [AZD8186] | 90.7 | 78.2 | 84.1 | 75.3 | 48 | 88.4 | 100 | 82.8 | 76.4 | 47.8 | 101 | 92.2 | 96.5 | 92 | 75.7 | 96.2 | 97.3 | 96.8 | 87.9 | 76.9 | 96.8 | 95.6 | 89.2 | 78.9 | 75 | 0.2 | 0.6 | > 10 | > 10 | > 10 | 8.8 | 6.4 | 1.5 | 1.7 | 3.8
CCCCC(=O)O[C@]1(C(=O)CO)[C@@H](C)C[C@H]2[C@@H]3CCC4=CC(=O)C=C[C@]4(C)[C@@]3(F)[C@@H](O)C[C@@]21C [BETAMETHASONE VALERATE] | 103 | 86.2 | 113 | 110 | 96.1 | 105 | 101 | 95.2 | 93.7 | 117 | 107 | 114 | 90 | 107 | 76.4 | 95.8 | 96.2 | 95 | 94.8 | 92.4 | 105 | 102 | 95.4 | 91.1 | 95.6 | > 10 | > 10 | > 10 | > 10 | > 10 | 0 | 0 | 0.6 | 0 | 0
CC(=O)N[C@H]1[C@@H](OC(C)C)O[C@H](COC(C)=O)[C@@H](OC(C)=O)[C@@H]1OC(C)=O [C34] | 106 | 109 | 91.8 | 101 | 98.5 | 112 | 96.1 | 103 | 95.5 | 101 | 95.3 | 102 | 102 | 102 | 110 | 102 | 106 | 96.9 | 103 | 96.3 | 96.2 | 96.2 | 97.1 | 96.6 | 95.5 | > 10 | > 10 | > 10 | > 10 | > 10 | 0 | 0 | 0 | 0 | 0
CC(=O)Nc1ccc(C(=O)NC(C)(C)C)cc1 [CPI-1189] | 99.9 | 99.7 | 104 | 95.7 | 99.9 | 108 | 105 | 108 | 114 | 96.6 | 91.5 | 95.3 | 96.6 | 97.4 | 94.2 | 100 | 93.3 | 98.2 | 97 | 98.7 | 96 | 99.6 | 97.8 | 97.2 | 91.8 | > 10 | > 10 | > 10 | > 10 | > 10 | 0 | 0 | 0 | 0 | 0
CC(C)(CC(=O)N1CCCC1)NCC(=O)N1C[C@@H](F)C[C@H]1C#N [DBPR108] | 91.1 | 93.5 | 86.4 | 95.6 | 95 | 107 | 97.5 | 100 | 98.9 | 95 | 96.2 | 102 | 94.6 | 104 | 105 | 97.9 | 98.1 | 99.1 | 100 | 92.9 | 99.6 | 99.9 | 104 | 92.2 | 102 | > 10 | > 10 | > 10 | > 10 | > 10 | 0 | 0 | 0 | 0 | 0
O=C(c1ccc(Cl)cc1)N(Cc1ccccc1)C1CCCCC1 [FPS-ZM1] | 101 | 91.6 | 93.3 | 102 | 89.4 | 105 | 96.3 | 102 | 99.3 | 89.7 | 106 | 106 | 102 | 92.9 | 93.8 | 98 | 98.6 | 97.4 | 100 | 96.2 | 97.6 | 97.7 | 99.3 | 101 | 90.8 | > 10 | > 10 | > 10 | > 10 | > 10 | 0 | 0 | 0 | 0 | 0
Cc1ccc2c(c1)Cc1c(C(=O)NN3CCCCC3)nn(-c3ccc(Cl)cc3Cl)c1-2 [GP1a] | 102 | 102 | 103 | 99.5 | 84.1 | 99.6 | 101 | 91.8 | 101 | 86.7 | 100 | 96.9 | 98.4 | 91.9 | 91.3 | 99.4 | 108 | 97.7 | 101 | 89.7 | 99.9 | 100 | 103 | 100 | 98.6 | > 10 | > 10 | > 10 | > 10 | > 10 | 0.3 | 0.1 | 0 | 0 | 0
CCCCOc1nc(N)c2c(n1)N(Cc1cccc(CN3CCCC3)c1)CC(=O)N2 [GS-9620] | 96.3 | 104 | 91.4 | 98.5 | 98.3 | 101 | 95.1 | 111 | 96.1 | 104 | 105 | 102 | 95.9 | 100 | 99.1 | 100 | 96.5 | 96.8 | 95.6 | 101 | 108 | 96.3 | 101 | 103 | 98.8 | > 10 | > 10 | > 10 | > 10 | > 10 | 0 | 0 | 0 | 0 | 0
Fc1cc(F)c2c(c1)[C@H]1C=CC[C@H]1C(c1cccnc1)N2 (stereo not given in full) [Golgicide A] | 108 | 103 | 101 | 98.2 | 31.5 | 103 | 108 | 108 | 98.2 | 19 | 121 | 108 | 102 | 105 | 10.9 | 103 | 101 | 105 | 105 | 1.7 | 111 | 108 | 105 | 100 | 4.4 | 2.97 | 3.01 | 3.48 | 3.46 | 3.2 | 4 | 4.7 | 4.5 | 5.1 | 5.3
Nc1nonc1/C(=N/O)Nc1ccc(F)c(Cl)c1 [IDO5L] | 101 | 95.2 | 115 | 87.7 | 109 | 92.5 | 96 | 108 | 89.6 | 114 | 92.8 | 97.8 | 104 | 89.9 | 91.2 | 93.1 | 95.7 | 102 | 95.5 | 102 | 106 | 102 | 96.7 | 98.8 | 114 | > 10 | > 10 | > 10 | > 10 | > 10 | 0 | 0 | 0 | 0 | 0
O=c1ccn([C@@H]2O[C@H](COP(=O)(O)OP(=O)(O)OP(=O)(O)O)[C@@H](O)[C@H]2O)c(=O)[nH]1 [INS316] | 102 ± 6 | 107 ± 18 | 109 ± 1.8 | 113 ± 26 | 93.5 ± 13 | 94.5 ± 3.1 | 95.8 ± 7.1 | 92.5 ± 1.9 | 100.8 ± 0.21 | 101 ± 7.7 | 100 ± 1.2 | 107 ± 2 | 109 ± 10 | 105 ± 3 | 103 ± 5.7 | 99.4 ± 5.7 | 95.9 ± 3.8 | 103 ± 7.8 | 96.3 ± 6.7 | 105 ± 1.8 | 98.6 ± 2.5 | 93.3 ± 11 | 98.2 ± 2.6 | 98.5 ± 4.2 | 99.1 ± 3.1 | > 10 | > 10 | > 10 | > 10 | > 10 | 0 | 0 | 0 | 0 | 0
O=C(Oc1ccc([N+](=O)[O-])cc1)N1CCC(C(O)(c2ccc3c(c2)OCO3)c2ccc3c(c2)OCO3)CC1 [JZL-184] | 104 | 98.5 | 100 | 91.5 | 104 | 105 | 115 | 100 | 91.2 | 117 | 109 | 114 | 90.5 | 116 | 97.9 | 94.9 | 100 | 98 | 96.2 | 97.9 | 106 | 97.2 | 91.9 | 96.4 | 91 | > 10 | > 10 | > 10 | > 10 | > 10 | 0 | 0 | 0 | 0 | 0
